Test results taken from patent publication US20090124562A1, “Versipelostatin derivative, anti-cancer agent and processes for production of the derivative and agent” (TOUDAI TLO, LTD., priority 2005, published 2009).

Tests used:
HT 1080 cell [1] = experiment: MTT assay, cell survival rate (Example 8); format: cell-based; conditions: for cell survival rate (MTT assay): 24 hours
GRP 78 = experiment: Western blot of GRP 78 expression in HT 1080 cell (Examples 6, 7); format: cell-based; conditions: glucose-deficient condition, cultured 18 hours, FIGS. 5 to 8
Source text: In Example 6, the action of the VST derivative to inhibit expression of GRP 78 was studied by Western blot method. In the present experiment, the compounds prepared in Example 1 (the compounds having the chemical structure represented by “Formula 11” as the substituent group R^1 (n=3)) was used as the VST derivative.
Expression of GRP 78 is known to induce under glucose-deficient condition. Thus in the present experiment, the action of the VST derivative to induce or inhibit expression of GPR78 was studied both under glucose-deficient condition and also under normal condition.
The experiment was performed generally in the following manner: First, HT 1080 cell (cancer cell) was cultured in RPMI 1640 medium. […] Then, cultured cells were harvested, and GRP 78 expressed was detected by Western blotting with an anti-GRP 78 antibody.
Then, the cell was cultured in a similar manner and condition to those in Example 6, and GRP 78 expressed was detected by Western blotting by using an anti-GRP 78 antibody.

HT 1080 cell [2] = experiment: Toxicity at the cell level, cell count at 100 μM (Examples 11, 12); format: cell-based
Method: HT 1080 cell was cultured in a 6-cm dish until the cells became 70% confluent, and VST or a VST derivative was added to a concentration of 10, 3, or 1 μM in the absence of glucose (in the glucose-deficient state), and the action thereof was studied.
In the present Example, the VST derivative prepared in Example 1 (the compounds having the chemical structure represented by “Formula 11” as the substituent group R^1 (n=3)) was used as the VST derivative. […] In the present Example, VST or the VST derivative was added at a concentration of 100 μM.
In the present Example, the culture cell was brought into the glucose-deficient state by addition of 2-deoxyglucose.
The three kinds of VST biotin derivatives prepared in Example 7 were used as the VST derivatives. In the present Example, VST or the VST derivative was added to a concentration of 100 μM, and 2-DG, to a concentration of 20 mM.

ICR mice = experiment: Acute toxicity experiment in mice (Example 13); format: in vivo; conditions: male ICR mice, tail vein injection
Method: The mice used were 7- to 8-week old male ICR mice (available from Charles River). VST or a VST derivative was administered to each mouse by tail vein injection, and the toxicity thereof was studied. In the present experiment, the VST biotin derivative prepared in Example 7 was used as the VST derivative.

Compound | cell survival rate (MTT assay) (HT 1080 cell [1]; 20 mM 2-DG alone) | induction of GRP 78 expression (Western blot) (GRP 78) | addition amount above which the cell survival rate declined significantly (HT 1080 cell [1]; 2-DG not added, MTT assay) | cell survival rate (MTT assay) (HT 1080 cell [1]; 2-DG not added, increasing addition amount, derivatives = VST-Biotin, VST-Biotin-C6, VST-Biotin-C12) | cell survival rate (MTT assay) (HT 1080 cell [1]; with 20 mM 2-DG (glucose-deficient state), derivatives = VST-Biotin, VST-Biotin-C6, VST-Biotin-C12) | cell death (HT 1080 cell [2]; Example 11: HT 1080 cell, glucose-deficient state) | cell count (HT 1080 cell [2]; Example 11: HT 1080 cell, normal culture environment (glucose present)) | cell death (HT 1080 cell [2]; Example 12: HT 1080 cell, glucose-deficient state by 2-DG 20 mM, three VST biotin derivatives of Example 7) | cell count (HT 1080 cell [2]; Example 12: HT 1080 cell, normal culture environment, three VST biotin derivatives of Example 7) | Number of dead animals (within 24 hours) (ICR mice; 6 mg/kg) | Number of dead animals (within 24 hours) (ICR mice; 9 mg/kg) | Number of dead animals (within 24 hours) (ICR mice; 12 mg/kg) | Number of dead animals (within 24 hours) (ICR mice; 15 mg/kg) | Number of dead animals (within 24 hours) (ICR mice; 18 mg/kg) | Number of dead animals (within 24 hours) (ICR mice; 21 mg/kg) | Number of dead animals (within 24 hours) (ICR mice; 30 mg/kg) | dosage leading to death of all mice (ICR mice; summary of Table 1)
O=CC[C@@H](O)[C@H](O)[C@H](O)CO [Example 2-DG, 2-deoxyglucose] | approximately 50% | – | – | – | – | – | – | – | – | – | – | – | – | – | – | – | –
versipelostatin [VST] | – | inhibited to some extent | exceeded 25 μM | declined significantly | around 30% | cell death | significant decrease in cell count | cell death | significant drop in cell count | 0 | 0 | 1 | 5 | 4 | 4 | 4 | more than 18 mg/kg
